Legend:
[1] = system: Rats; assay: Food intake studies using different diets; type: in vivo, rat; settings: 2.0, 4.0, 8.0 mg/kg IP 30 min prior; high-fat, high-carbohydrate, lab chow
Excerpt: Animals were assigned to three different diet conditions (n=10/group). One group was assigned to a high-fat diet (HF; Diet # D12451, Research Diets, New Brunswick, N.J., 20% protein, 45% fat, 35% carbohydrate). A second group was given a high-carbohydrate diet (HC; Diet # D12450B, Research Diets, New Brunswick, N.J., 20% protein, 10% fat, 70% carbohydrate). The remaining group was fed a standard chow diet (LC, 5P00 Prolab RMH 3000, PMI Nutrition International, St. Louis, Mo.; 26% protein, 14% fat, 60% carbohydrate). Food blocks from each type of diet were nutritionally complete and similar in appearance and weight. Rats were given free access to lab chow in their home cages until the beginning of a five day habituation period. On the first day of habituation, rats were assigned to their respective dietary groups and moved into suspended wire mesh test cages containing their assigned food type. After spending 30 min in the test cage, they were returned to their home cages. After this initial habituation period, rats were given free access to lab chow in their home cages every Thursday afternoon through Monday afternoon. Each Tuesday and Wednesday, rats spent 30 min in the test cages with their assigned diets. On Thursdays, the injected animals were placed in the test cages with a pre-weighed amount of assigned food. A piece of cardboard was placed underneath the chamber to catch spillage. […]

[2] = system: Male Sprague-Dawley (SD) rats; assay: Food intake studies (experiments A, B, C), food intake and body weight; type: in vivo, rat
Method: All experimental protocols were approved by internal guidelines. Different concentrations of drugs were administered I.P. in a 1 ml kg-1 (milliliters per kilogram) volume, except M6G, which was given s.c. (subcutaneously) in a 0.1 ml kg-1 volume.
Food and water were presented in inverted glass bottles that attached to the outside of the cage. Food was available for 18 h each day starting at 16:00 h (12 h light-dark cycle; lights off 16:00 h).
Intake measurements were taken at 1.5 h, 3 h, 5 h, and 18 h after food became available.
Rats were habituated to testing and handling procedures as before. […] Food intake and body weight were monitored daily.
On the day of the experiment each rat received only a single injection, 30 min later food was made available as described in experiment 1. Food intake was measured 0.5, 1.5, 3, 5, and 18 h after administration. Food intake and body weight were monitored daily for five days after the experiment to assess the sustained effect of a single administration of each compound.

[3] = system: adult male ferrets; assay: Emesis studies: vomiting induced by the emetic M6G; type: in vivo, ferret; settings: for mean number of vomiting episodes±SEM: 60 min observation
Method: Ferrets were lightly anaesthetized with halothane for each injection. Data were videotaped and analyzed by an observer blinded to the conditions of each treatment group. During 60 min of observation the number of vomiting (emetic) episodes were counted, and activity or sleeping time was noted. […] Each ferret acted as its own control, conditions were randomized via a counter balance design and separated by at least 14 days.

[4] = target: T1, CB1 receptor (Rattus norvegicus, UniProt P20272); assay: [3H]CP55,940 competitive binding assay, CB1 (rat brain membranes); design: membrane preparations from rat brain; from tissue; host or cells: rat brain membranes
T1 sequence (P20272 whole entry): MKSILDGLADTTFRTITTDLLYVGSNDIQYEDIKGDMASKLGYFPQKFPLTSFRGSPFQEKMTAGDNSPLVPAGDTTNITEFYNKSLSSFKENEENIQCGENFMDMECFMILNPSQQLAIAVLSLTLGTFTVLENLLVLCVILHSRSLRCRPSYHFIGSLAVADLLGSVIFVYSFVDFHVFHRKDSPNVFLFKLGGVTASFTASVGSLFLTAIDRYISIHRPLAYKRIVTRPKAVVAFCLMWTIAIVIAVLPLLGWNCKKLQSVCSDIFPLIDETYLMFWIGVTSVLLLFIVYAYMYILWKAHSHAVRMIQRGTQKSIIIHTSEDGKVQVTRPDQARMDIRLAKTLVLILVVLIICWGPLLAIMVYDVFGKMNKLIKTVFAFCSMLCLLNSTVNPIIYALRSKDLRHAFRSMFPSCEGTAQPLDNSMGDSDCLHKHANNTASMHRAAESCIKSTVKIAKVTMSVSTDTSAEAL
Method: Compounds were tested for their CB1 and CB2 receptor using membrane preparations from rat brain or HEK293 cells expressing hCB2 receptor, respectively, and [^3H]CP55,940 as previously described 1, 36-38. Stock solutions of the compounds (10 mM in DMSO) were diluted in TME buffer (50 mM Tris-HCL, 3 mM MgCl2, 100 mM NaCl, 0.2 mM EDTA, pH 7.4) with 0.1% BSA and transferred to 96 well plates containing [^3H]CP55,940 (specific activity 128 Ci/mmol; NIDA) at a final concentration of 0.76 nM. Non-specific binding was assessed in the presence of 100 nM CP55,940. The binding reaction was initiated with the addition of the respective membrane suspension (˜50 μg membrane protein) followed by incubation at 30° C. with gentle agitation in a shaking water bath for 60 minutes. […] The filter plates were washed with ice-cold wash buffer (50 mM Tris-base, 5 mM MgCl2 with 0.5% BSA) and bound radioactivity was determined using a Packard TopCount Scintillation Counter. The results were analyzed using nonlinear regression to determine the actual IC50 and the Ki values of the ligand (Prizm by GraphPad Software, Inc.). All data were in duplicate with IC50 and Ki values determined from at least two independent experiments.
The affinity of a compound for CB1 vs. CB2 is determined by the ratio of the inhibitory constants (Ki), as determined by the competitive binding assay.

[5] = target: T1, CB1 receptor; assay: Thermoregulation assay: hypothermia induced by the CB1 agonist CP55,940; type: in vivo; design: antagonized CB1 receptors in vivo; from tissue; host or cells: whole animal, male SD rats
Method: Briefly, silicone coated temperature data loggers (SubCue Inc, Calgary, Canada) were surgically implanted into the abdominal cavity of male SD (450-500 g) rats under isoflurane anesthesia (4% induction; 2-2.5% maintenance). Rats were allowed to recover for 3 days before being acclimatized to testing and handling procedures for an additional seven days. Core body temperature readings were sampled every 5 min for 300 min during the course of each experiment.

[6] = experiment B, 5 mg kg-1 daily, day 4
[7] = experiment B, 5 mg kg-1 daily, day 5

**Q.** For `Cc1c(C(=O)NN2CCCCC2)nn(-c2ccc(Cl)cc2Cl)c1-c1ccc(C#CCCC#N)cc1` [Compound 3], which “food intake over vehicle across all diet groups” value [1] is on record?
**A.** significantly suppressed food intake

**Q.** And the “acute effect on food intake compared with vehicle” value ([2]; experiment A, 5 mg kg-1 I.P. single dose)?
**A.** did not significantly reduced food intake

**Q.** And the “food intake and weight gain, differences to vehicle treated rats” value ([2]; experiment B, 1 mg kg-1 daily)?
**A.** non significant

**Q.** What about the “food intake, difference compared with vehicle treated rats” value ([2]; experiment B, 5 mg kg-1 daily, day 3) of the same compound?
**A.** -23.2 g

**Q.** What about the “food intake, difference compared with vehicle treated rats” value [2, 6] of the same compound?
**A.** -20.4 g

**Q.** What about the “weight gain, difference to vehicle treated rats” value [2, 6] of the same compound?
**A.** -15.6 g

**Q.** And the “food intake, difference compared with vehicle treated rats” value [2, 7]?
**A.** -19.2 g

**Q.** And the “weight gain, difference to vehicle treated rats” value [2, 7]?
**A.** -21.8 g

**Q.** What about the “weight gain, difference to vehicle treated rats” value ([2]; experiment B, 5 mg kg-1 daily, day 6) of the same compound?
**A.** -23.7 g

**Q.** And the “food intake compared with vehicle” value ([2]; experiment B, 1 and 5 mg kg-1 daily, first day of treatment)?
**A.** No significant reductions

**Q.** And the “differences in food intake” value ([2]; experiment B, 1 and 5 mg kg-1 daily, second day of treatment)?
**A.** not statistically significant

**Q.** And the “food intake, difference between the 1 mg kg-1 and 5 mg kg-1 doses” value ([2]; experiment B, daily treatment, day 3)?
**A.** -17.6 g

**Q.** What about the “weight gain, difference 5 mg kg-1 versus 1 mg kg-1” value ([2]; experiment B, daily treatment, day 4) of the same compound?
**A.** -12.0 g

**Q.** And the “food intake, difference compared with vehicle treated rats” value ([2]; experiment C, 10 mg kg-1 single dose, 3 h)?
**A.** -20.0 g

**Q.** What about the “food intake, difference compared with vehicle treated rats” value ([2]; experiment C, 10 mg kg-1 single dose, 5 h) of the same compound?
**A.** -22.8 g

**Q.** And the “food intake, difference compared with vehicle treated rats” value ([2]; experiment C, 10 mg kg-1 single dose, 18 h)?
**A.** -42.0 g

**Q.** What about the “food intake, difference compared with vehicle treated rats” value ([2]; experiment C, 10 mg kg-1 single dose, […]) of the same compound?
**A.** -14.3 g

**Q.** And the “food intake, difference compared with vehicle treated rats” value ([2]; experiment C, 20 mg kg-1 single dose, 3 h)?
**A.** -21.3 g

**Q.** What about the “food intake, difference compared with vehicle treated rats” value ([2]; experiment C, 20 mg kg-1 single dose, 5 h) of the same compound?
**A.** -30.1 g

**Q.** What about the “food intake, difference compared with vehicle treated rats” value ([2]; experiment C, 20 mg kg-1 single dose, 18 h) of the same compound?
**A.** -60.6 g

**Q.** What about the “food intake, difference compared with vehicle treated rats” value ([2]; experiment C, 20 mg kg-1 single dose, […]) of the same compound?
**A.** -15.0 g

**Q.** And the “weight gain for several days after the experiment” value ([2]; experiment C, single administration (Compound 1 5 mg kg-1; Compound 3 10, 20 mg kg-1))?
**A.** significantly reduced

**Q.** What about the “daily food intake after treatment relative to vehicle treated rats” value ([2]; experiment C, single administration (Compound 1 5 mg kg-1; Compound 3 10, 20 mg kg-1), days after) of the same compound?
**A.** reduced

**Q.** What about the “weight gain, difference between 10 mg kg-1 and 20 mg kg-1 treatment groups” value ([2]; experiment C, single dose, day 5) of the same compound?
**A.** -12.3 g

**Q.** What about the “mean number of vomiting episodes±SEM” value ([3]; 5 mg kg-1 I.P. 15 min before M6G) of the same compound?
**A.** 2.0±0.6

**Q.** What about the “mean number of vomiting episodes±SEM” value ([3]; 10 mg kg-1 I.P. 15 min before M6G) of the same compound?
**A.** 2.0±0.4

**Q.** What about the “mean number of vomiting episodes±SEM” value ([3]; 20 mg kg-1 I.P. 15 min before M6G) of the same compound?
**A.** 2.7±0.6

**Q.** And the “effect on number of vomiting episodes induced by M6G compared with vehicle” value ([3]; Compound 3 5, 10, 20 mg kg-1, Compound 1 5 mg kg-1)?
**A.** did not significantly increase

**Q.** What about the Ki ([4]; against [3H]CP55,940, rat brain membranes) of the same compound?
**A.** 0.89 ± 0.44 nM

**Q.** What about the “selectivity for CB1 versus CB2 receptors” value ([4]; ratio of Ki values) of the same compound?
**A.** ~100 fold

**Q.** What about the “hypothermic effect of CP55,940” value ([5]; 5 mg kg-1 pre-treatment 45 min before CP55,940 0.3 mg kg-1, compared with vehicle) of the same compound?
**A.** completely blocked

**Q.** And the “blood brain barrier passage” value ([5]; inferred from block of centrally mediated hypothermia, within a short period after administration)?
**A.** crosses the blood brain barrier
